Data reported in ChEMBL document CHEMBL1201862, “PubChem BioAssay data set” (2004).
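Assay format: 96-well plates, 48-hour exposure. Abbreviation: GI50, concentration required for 50% inhibition of growth.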 Calls of active or inactive are those of the source. Rule as the data show it: active = GI50 up to about 1.1 µM and inactive = higher.

Legend:
Test in all cases: NCI anticancer screen, dose series, 48 h
786-0 = test system: 786-0
CCRF-CEM = test system: CCRF-CEM
EKVX = test system: EKVX
HL-60 = test system: HL-60
LOX IMVI = test system: LOX IMVI
MDA-MB-231 = test system: MDA-MB-231
MDA-MB-435 = test system: MDA-MB-435
MDA-N = test system: MDA-N
MOLT-4 = test system: MOLT-4
NCI-H23 = test system: NCI-H23
OVCAR-5 = test system: OVCAR-5
RXF 393 = test system: RXF 393
SF-539 = test system: SF-539
SK-MEL-28 = test system: SK-MEL-28
SK-OV-3 = test system: SK-OV-3
SW-620 = test system: SW-620
U-251 = test system: U-251
UACC-62 = test system: UACC-62
MCF7 = test system: MCF7

SMILES | GI50 (786-0) | GI50 (CCRF-CEM) | GI50 (EKVX) | GI50 (HL-60) | GI50 (LOX IMVI) | GI50 (MDA-MB-231) | GI50 (MDA-MB-435) | GI50 (MDA-N) | GI50 (MOLT-4) | GI50 (NCI-H23) | GI50 (OVCAR-5) | GI50 (RXF 393) | GI50 (SF-539) | GI50 (SK-MEL-28) | GI50 (SK-OV-3) | GI50 (SW-620) | GI50 (U-251) | GI50 (UACC-62) | GI50 (MCF7)
O=c1oc2ccc3ccccc3c2cc1-c1nc2ccc([N+](=O)[O-])cc2o1 | 12.4 µM (inactive) | 75.2 µM (inactive) | 31.3 µM (inactive) | 34.7 µM (inactive) | 22.9 µM (inactive) | 43.6 µM (inactive) | > 58.3 µM (inactive) | > 100 µM (inactive) | > 67.6 µM (inactive) | 41.2 µM (inactive) | > 100 µM (inactive) | 4.72 µM (inactive) | 10.4 µM (inactive) | > 100 µM (inactive) | > 30.4 µM (inactive) | > 100 µM (inactive) | 28.7 µM (inactive) | 59 µM (inactive) | 
[O-][S+](Nc1ccccc1)c1ccc(Cl)c(Cl)c1 (stereo unspecified) | 53.8 µM (inactive) | > 100 µM (inactive) | 47.3 µM (inactive) | 36.9 µM (inactive) | 38.8 µM (inactive) | 40.9 µM (inactive) | 24.2 µM (inactive) | > 100 µM (inactive) | 23.7 µM (inactive) | 54.5 µM (inactive) |  |  | 20.6 µM (inactive) | > 100 µM (inactive) |  | > 100 µM (inactive) | 15.9 µM (inactive) | 25.8 µM (inactive) | 33.7 µM (inactive)
N#Cc1ccc(-c2nc3cc(Cl)ccc3[nH]2)cc1 | > 100 µM (inactive) | 41.2 µM (inactive) | 23.1 µM (inactive) | 13 µM (inactive) |  | > 100 µM (inactive) |  | 49.1 µM (inactive) | 23.1 µM (inactive) |  |  | > 100 µM (inactive) | > 100 µM (inactive) |  | > 100 µM (inactive) | > 100 µM (inactive) | 61.9 µM (inactive) |  | 63 µM (inactive)
Cc1ccc(NC(=O)c2cc3cc(/N=N/c4ccccc4C(=O)O)ccc3oc2=O)cc1 | 94.6 µM (inactive) | 30.2 µM (inactive) | 46.1 µM (inactive) | 26.7 µM (inactive) | 35.2 µM (inactive) |  |  |  | 32.2 µM (inactive) | 32.1 µM (inactive) |  | 51.4 µM (inactive) | 30.5 µM (inactive) | 37.5 µM (inactive) | 74 µM (inactive) | 47.5 µM (inactive) | 43.2 µM (inactive) | 24.6 µM (inactive) | 
CCOC(=O)c1nc2cc(C(F)(F)F)ccc2nc1Nc1ccc(C(=O)OC)s1 | 29.6 µM (inactive) | 30.6 µM (inactive) | 45.9 µM (inactive) | 38 µM (inactive) | 30.5 µM (inactive) | 23.6 µM (inactive) | 47.2 µM (inactive) |  | 27.1 µM (inactive) | 30 µM (inactive) | > 100 µM (inactive) | 16.8 µM (inactive) |  | 45 µM (inactive) | 47.3 µM (inactive) | 49.1 µM (inactive) | 29.6 µM (inactive) | 23.2 µM (inactive) | 
Cc1csc2nc(-c3cc([N+](=O)[O-])c(Cl)cc3Cl)c(/C=N/N=C(N)N)n12 | 19.5 µM (inactive) | 27.2 µM (inactive) | 19.7 µM (inactive) | 13.5 µM (inactive) | 16.7 µM (inactive) | 14.8 µM (inactive) | 17.1 µM (inactive) |  | 0.0986 µM (active) | 16.4 µM (inactive) | 17.4 µM (inactive) | 15.9 µM (inactive) | 18.7 µM (inactive) | 16.4 µM (inactive) |  | 17.2 µM (inactive) | 16.6 µM (inactive) | 14.2 µM (inactive) | 15.3 µM (inactive)
COC1=C[C@]2(CCC(=O)O2)[C@@H]2Cc3ccccc3[C@H](O)[C@@H]2C1=O | 70.5 µM (inactive) | 15.1 µM (inactive) | > 100 µM (inactive) | 25.7 µM (inactive) | 28.7 µM (inactive) | 34.6 µM (inactive) | 16.9 µM (inactive) | 15.8 µM (inactive) | 17.9 µM (inactive) | 40.3 µM (inactive) | > 100 µM (inactive) |  |  | > 100 µM (inactive) | > 100 µM (inactive) | 28.4 µM (inactive) | 27.7 µM (inactive) | 24.8 µM (inactive) | 44 µM (inactive)
O=C1CCCCC/C1=C\c1ccc(F)cc1 | > 100 µM (inactive) | 24.4 µM (inactive) | > 100 µM (inactive) |  | 94 µM (inactive) | > 100 µM (inactive) | 74.1 µM (inactive) | > 100 µM (inactive) | 67.3 µM (inactive) | > 100 µM (inactive) | > 100 µM (inactive) |  |  | > 100 µM (inactive) | > 100 µM (inactive) | > 100 µM (inactive) | 98.6 µM (inactive) | 40.3 µM (inactive) | 
Cc1cc(C)c2c(n1)S(=O)(=O)N(CCCN1CCN(c3cccc(Cl)c3)CC1)C(C(=O)c1ccc(Br)cc1)=C2O | 12.1 µM (inactive) | 19.9 µM (inactive) | 19.3 µM (inactive) | 14.3 µM (inactive) | 6.81 µM (inactive) | 37.7 µM (inactive) | 18.2 µM (inactive) |  | 10.6 µM (inactive) | 33.5 µM (inactive) | 36.2 µM (inactive) | 23.8 µM (inactive) | 20.7 µM (inactive) | 28.2 µM (inactive) | 29.5 µM (inactive) | 34.1 µM (inactive) | 21.3 µM (inactive) | 31.6 µM (inactive) | 25.7 µM (inactive)
CCOC(=O)c1c(N)sc2c1C(C(=O)OCC)CCCC2 (stereo unspecified) | > 100 µM (inactive) |  | 85.3 µM (inactive) | 26.2 µM (inactive) |  | 46.8 µM (inactive) |  | 69.5 µM (inactive) | 29.6 µM (inactive) | 62.1 µM (inactive) | > 100 µM (inactive) | 17.3 µM (inactive) |  | > 100 µM (inactive) |  | > 100 µM (inactive) | 66.5 µM (inactive) | 78.3 µM (inactive) | > 100 µM (inactive)
COc1ccc(N2C(=O)C(=O)C3(CCCCC3)C2=O)c(OC)c1OC | > 100 µM (inactive) | > 100 µM (inactive) | > 100 µM (inactive) | > 100 µM (inactive) | > 100 µM (inactive) |  | > 100 µM (inactive) | > 100 µM (inactive) | > 100 µM (inactive) | > 100 µM (inactive) | > 100 µM (inactive) | > 100 µM (inactive) | > 100 µM (inactive) | > 100 µM (inactive) | > 100 µM (inactive) | > 100 µM (inactive) | > 100 µM (inactive) | > 100 µM (inactive) | > 100 µM (inactive)
COc1ccc2c(c1)-c1c(c3cc(OC)ccc3n1CCN1CCOCC1)CC2 | 20.2 µM (inactive) | 11.5 µM (inactive) |  |  |  | 34.4 µM (inactive) | 49.1 µM (inactive) |  | 11.9 µM (inactive) | 52.1 µM (inactive) | 25.4 µM (inactive) | 27.1 µM (inactive) | 28.4 µM (inactive) | 57.1 µM (inactive) | > 100 µM (inactive) | 33.7 µM (inactive) | 29.4 µM (inactive) | 16.8 µM (inactive) | 29 µM (inactive)
CC1(C)CC(=O)c2c(nc(SSc3nc4c(c(-c5ccc(Br)cc5)c3C#N)C(=O)CC(C)(C)C4)c(C#N)c2-c2ccc(Br)cc2)C1 | > 10 µM (inactive) | > 10 µM (inactive) | > 10 µM (inactive) | > 10 µM (inactive) | > 10 µM (inactive) |  |  | > 10 µM (inactive) | > 10 µM (inactive) | > 10 µM (inactive) | > 10 µM (inactive) | > 10 µM (inactive) | > 10 µM (inactive) | > 10 µM (inactive) | > 10 µM (inactive) | > 10 µM (inactive) | > 10 µM (inactive) |  | > 10 µM (inactive)
CC(=O)Nc1ccc2nc(-c3cccc(Cl)c3)cc(O)c2c1 | 13.4 µM (inactive) | 3.44 µM (inactive) | > 100 µM (inactive) | 8.34 µM (inactive) |  | 0.863 µM (active) | 2.35 µM (inactive) |  | 5.35 µM (inactive) | 35.6 µM (inactive) | 68.4 µM (inactive) |  | 4.71 µM (inactive) | 39.3 µM (inactive) | 0.787 µM (active) | 4.41 µM (inactive) | 3.65 µM (inactive) | 2.42 µM (inactive) | 3.77 µM (inactive)
CC(NC(=O)C(N)CC(=O)O)C(=O)OC12CC3CC(CC(C3)C1)C2 (stereo unspecified) | > 100 µM (inactive) | > 100 µM (inactive) | > 100 µM (inactive) |  | > 100 µM (inactive) | > 100 µM (inactive) | > 100 µM (inactive) |  | > 100 µM (inactive) | > 100 µM (inactive) | > 100 µM (inactive) | > 100 µM (inactive) |  | > 100 µM (inactive) | > 100 µM (inactive) | > 100 µM (inactive) | > 100 µM (inactive) | > 100 µM (inactive) | > 100 µM (inactive)
OCC1CCCCCCCCCCC12SCCCS2 (stereo unspecified) | > 100 µM (inactive) | > 100 µM (inactive) | > 100 µM (inactive) | > 100 µM (inactive) | > 100 µM (inactive) |  | > 100 µM (inactive) | > 100 µM (inactive) | > 100 µM (inactive) | > 100 µM (inactive) | > 100 µM (inactive) |  |  | > 100 µM (inactive) | > 100 µM (inactive) | > 100 µM (inactive) | > 100 µM (inactive) | > 100 µM (inactive) | > 100 µM (inactive)
CCOC(=O)/C(C#N)=C(/NS(=O)(=O)c1cc(C)c(Cl)cc1[S-])[n+]1ccc(N(C)C)cc1 | > 100 µM (inactive) | > 100 µM (inactive) | > 100 µM (inactive) | > 100 µM (inactive) |  | > 100 µM (inactive) | > 100 µM (inactive) |  | > 100 µM (inactive) | > 100 µM (inactive) | > 100 µM (inactive) | > 100 µM (inactive) | > 100 µM (inactive) | > 100 µM (inactive) | > 100 µM (inactive) |  | > 100 µM (inactive) | > 100 µM (inactive) | > 100 µM (inactive)
